Type in all cases: in vitro ADME
One data set addresses T1, OATP1A2 (Homo sapiens, UniProt P46721).
T1 sequence (P46721 1-670): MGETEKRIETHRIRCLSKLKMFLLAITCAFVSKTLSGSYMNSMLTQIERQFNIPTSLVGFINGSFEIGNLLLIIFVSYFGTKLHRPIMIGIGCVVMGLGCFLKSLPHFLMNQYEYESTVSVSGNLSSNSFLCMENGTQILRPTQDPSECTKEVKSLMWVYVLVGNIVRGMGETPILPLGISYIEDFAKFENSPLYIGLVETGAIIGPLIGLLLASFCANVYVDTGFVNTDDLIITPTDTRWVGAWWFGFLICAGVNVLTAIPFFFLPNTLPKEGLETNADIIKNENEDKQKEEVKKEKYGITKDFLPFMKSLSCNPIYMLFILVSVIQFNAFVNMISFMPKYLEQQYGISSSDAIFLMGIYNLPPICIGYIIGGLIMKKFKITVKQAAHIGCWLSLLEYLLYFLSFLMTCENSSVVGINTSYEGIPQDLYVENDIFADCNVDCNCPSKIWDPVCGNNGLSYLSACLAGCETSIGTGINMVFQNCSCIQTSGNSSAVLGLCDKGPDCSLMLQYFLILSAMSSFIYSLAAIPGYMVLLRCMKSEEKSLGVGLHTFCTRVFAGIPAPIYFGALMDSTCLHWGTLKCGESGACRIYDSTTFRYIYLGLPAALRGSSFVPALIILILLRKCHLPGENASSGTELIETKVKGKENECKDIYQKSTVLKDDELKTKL
The data set is described as follows: Drug uptake in X. laevis oocytes injected with SLCO1A2. As to conditions: for Drug uptake, OATP1A2: OATP1A2 cRNA injected oocytes; for Drug uptake, OATP1A2 / Drug uptake, Water: 1 µM (darunavir 3 µM), 18°C, 1hr, mean ± SD; for Drug uptake, Water: water injected control oocytes (Table 1); for Accumulation in SLCO1A2 cRNA injected oocytes compared to water injected control oocytes (in words): in the presence and in the absence of 2% HSA; for Ratio (fold increase in OATP1A2 cRNA injected oocytes compared to water injected oocytes): * = P < 0.05.

A further data set addresses T2, OATP1B1 (Homo sapiens, UniProt Q9Y6L6).
T2 sequence (Q9Y6L6 1-691): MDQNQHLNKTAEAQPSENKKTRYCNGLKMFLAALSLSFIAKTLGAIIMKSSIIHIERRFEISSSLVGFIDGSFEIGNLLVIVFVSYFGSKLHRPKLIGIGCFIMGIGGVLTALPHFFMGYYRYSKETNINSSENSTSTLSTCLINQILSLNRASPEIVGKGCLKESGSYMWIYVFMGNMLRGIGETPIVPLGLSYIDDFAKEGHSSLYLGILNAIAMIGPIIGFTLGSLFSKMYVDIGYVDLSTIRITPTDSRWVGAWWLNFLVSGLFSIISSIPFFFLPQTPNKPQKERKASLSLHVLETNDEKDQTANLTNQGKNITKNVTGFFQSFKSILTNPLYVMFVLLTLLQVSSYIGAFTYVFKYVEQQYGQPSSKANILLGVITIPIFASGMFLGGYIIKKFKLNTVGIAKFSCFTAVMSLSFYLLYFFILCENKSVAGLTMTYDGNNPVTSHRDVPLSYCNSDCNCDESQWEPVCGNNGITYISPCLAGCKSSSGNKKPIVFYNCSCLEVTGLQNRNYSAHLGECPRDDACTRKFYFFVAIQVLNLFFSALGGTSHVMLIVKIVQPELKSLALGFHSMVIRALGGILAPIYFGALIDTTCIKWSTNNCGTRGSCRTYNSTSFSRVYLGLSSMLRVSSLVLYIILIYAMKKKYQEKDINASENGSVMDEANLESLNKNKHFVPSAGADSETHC
The data set is described as follows: Drug uptake in X. laevis oocytes injected with SLCO1B1. Particulars: for Drug uptake, OATP1B1: OATP1B1 cRNA injected oocytes; for Drug uptake, OATP1B1 / Drug uptake, Water: 1 µM (darunavir 3 µM), 18°C, 1hr, mean ± SD; for Drug uptake, Water: water injected control oocytes (Table 2); for Accumulation in SLCO1B1 cRNA injected oocytes compared to water injected control oocytes (in words): in the presence and in the absence of 2% HSA; for Ratio (fold increase in OATP1B1 cRNA injected oocytes compared to water injected oocytes): * = P < 0.05.

A further data set has as its target T3, OATP1B3 (Homo sapiens, UniProt Q9NPD5).
T3 sequence (Q9NPD5 1-702): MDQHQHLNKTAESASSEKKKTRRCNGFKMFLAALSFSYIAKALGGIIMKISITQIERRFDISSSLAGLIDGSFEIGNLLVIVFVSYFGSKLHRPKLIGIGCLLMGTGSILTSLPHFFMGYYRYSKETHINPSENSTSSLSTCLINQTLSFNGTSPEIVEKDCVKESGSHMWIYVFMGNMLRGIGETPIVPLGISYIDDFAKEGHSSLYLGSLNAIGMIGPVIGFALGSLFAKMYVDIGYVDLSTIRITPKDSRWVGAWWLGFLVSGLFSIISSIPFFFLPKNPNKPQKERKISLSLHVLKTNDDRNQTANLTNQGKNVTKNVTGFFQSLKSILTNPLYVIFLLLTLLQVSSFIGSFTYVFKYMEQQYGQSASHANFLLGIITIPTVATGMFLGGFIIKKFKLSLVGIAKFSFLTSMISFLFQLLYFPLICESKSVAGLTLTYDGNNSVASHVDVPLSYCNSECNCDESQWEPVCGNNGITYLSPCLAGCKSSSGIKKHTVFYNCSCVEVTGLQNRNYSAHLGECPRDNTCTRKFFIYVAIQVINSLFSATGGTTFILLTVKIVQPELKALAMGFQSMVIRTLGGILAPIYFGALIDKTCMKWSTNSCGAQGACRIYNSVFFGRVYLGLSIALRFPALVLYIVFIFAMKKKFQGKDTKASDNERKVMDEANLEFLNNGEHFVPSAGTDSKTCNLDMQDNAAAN
The data set is described as follows: Drug uptake in X. laevis oocytes injected with SLCO1B3. As to conditions: without human serum albumin; for Drug uptake, OATP1B3: OATP1B3 cRNA injected oocytes; for Drug uptake, OATP1B3 / Drug uptake, Water: 1 µM (darunavir 3 µM, performed once), 18°C, 1hr, mean ± SD; for Drug uptake, Water: water injected control oocytes (Table 3); for Ratio (fold increase in OATP1B3 cRNA injected oocytes compared to water injected oocytes): * = P < 0.05.

Molecules are shown by their SMILES.

With `CC(C)CN(C[C@@H](O)[C@H](Cc1ccccc1)NC(=O)O[C@H]1CO[C@H]2OCC[C@H]21)S(=O)(=O)c1ccc(N)cc1` [Darunavir, darunavir], the “Drug uptake, OATP1A2” value came out at 2.56 ± 0.78 pmol/oocyte on OATP1A2 (with 2% human serum albumin) and 4.32 ± 0.75 pmol/oocyte on OATP1A2 (without human serum albumin). The “Drug uptake, Water” value at OATP1A2 (with 2% human serum albumin) worked out at 0.96 ± 0.37 pmol/oocyte; on OATP1A2 (without human serum albumin), 2.18 ± 0.40 pmol/oocyte; at OATP1B1 (with 2% human serum albumin), 0.72 ± 0.18 pmol/oocyte; at OATP1B1 (without human serum albumin) it was 2.12 ± 0.55 pmol/oocyte; at OATP1B3, 3.29 pmol/oocyte. In addition, the “Drug uptake, OATP1B1” value at OATP1B1 (with 2% human serum albumin) came to 2.14 ± 0.82 pmol/oocyte; on OATP1B1 (without human serum albumin), 4.13 ± 0.40 pmol/oocyte. At OATP1B3, the “Drug uptake, OATP1B3” value was found to be 5.41 pmol/oocyte.

For `O=C1Nc2ccc(Cl)cc2[C@@](C#CC2CC2)(C(F)(F)F)O1` [Efavirenz, efavirenz], at OATP1A2 (with 2% human serum albumin), the “Drug uptake, OATP1A2” value worked out at 1.63 ± 0.24 pmol/oocyte; the “Drug uptake, Water” value is 1.47 ± 0.28 pmol/oocyte; the “Ratio (fold increase in OATP1A2 cRNA injected oocytes compared to water injected oocytes)” value turned out to be 1.11. Moreover, on OATP1A2 (without human serum albumin), the “Drug uptake, OATP1A2” value was 10.3 ± 2.90 pmol/oocyte; the “Drug uptake, Water” value is 12.6 ± 2.49 pmol/oocyte; the “Ratio (fold increase in OATP1A2 cRNA injected oocytes compared to water injected oocytes)” value is on record as 0.81. For the same compound, the “Accumulation in SLCO1A2 cRNA injected oocytes compared to water injected control oocytes (in words)” value at OATP1A2 is recorded as “No significant increase”. Moreover, on OATP1B1 (with 2% human serum albumin), the “Drug uptake, OATP1B1” value turned out to be 1.51 ± 0.12 pmol/oocyte; the “Drug uptake, Water” value is 1.46 ± 0.21 pmol/oocyte; the “Ratio (fold increase in OATP1B1 cRNA injected oocytes compared to water injected oocytes)” value was 1.03. On OATP1B1 (without human serum albumin), the “Drug uptake, OATP1B1” value is 16.0 ± 4.17 pmol/oocyte; the “Drug uptake, Water” value was found to be 15.9 ± 1.70 pmol/oocyte; the “Ratio (fold increase in OATP1B1 cRNA injected oocytes compared to water injected oocytes)” value is 1.00. Besides, the “Accumulation in SLCO1B1 cRNA injected oocytes compared to water injected control oocytes (in words)” value at OATP1B1 is recorded as “No significant increase”. Also, at OATP1B3, the “Drug uptake, OATP1B3” value is 18.21 ± 6.21 pmol/oocyte; the “Drug uptake, Water” value was 16.56 ± 6.84 pmol/oocyte; the “Accumulation in SLCO1B3 cRNA injected oocytes compared to water injected control (in words)” value is given as “No significant increase”; the “Ratio (fold increase in OATP1B3 cRNA injected oocytes compared to water injected oocytes)” value is given as 1.10.

`Cc1ccnc2c1NC(=O)c1cccnc1N2C1CC1` [Nevirapine, nevirapine]: at OATP1A2 (with 2% human serum albumin), the “Drug uptake, OATP1A2” value is listed as 2.17 ± 0.26 pmol/oocyte; the “Drug uptake, Water” value was 2.23 ± 0.93 pmol/oocyte; the “Ratio (fold increase in OATP1A2 cRNA injected oocytes compared to water injected oocytes)” value was 0.97. For the same compound, on OATP1A2 (without human serum albumin), the “Drug uptake, OATP1A2” value was 2.92 ± 0.59 pmol/oocyte; the “Drug uptake, Water” value is reported as 2.65 ± 0.54 pmol/oocyte; the “Ratio (fold increase in OATP1A2 cRNA injected oocytes compared to water injected oocytes)” value came out at 1.10. Also, the “Accumulation in SLCO1A2 cRNA injected oocytes compared to water injected control oocytes (in words)” value at OATP1A2 is reported as “No significant increase”. Further, on OATP1B1 (with 2% human serum albumin), the “Drug uptake, OATP1B1” value was 2.01 ± 0.40 pmol/oocyte; the “Drug uptake, Water” value stood at 1.80 ± 0.46 pmol/oocyte; the “Ratio (fold increase in OATP1B1 cRNA injected oocytes compared to water injected oocytes)” value came to 1.12. Besides, on OATP1B1 (without human serum albumin), the “Drug uptake, OATP1B1” value was 2.26 ± 0.20 pmol/oocyte; the “Drug uptake, Water” value worked out at 2.14 ± 0.22 pmol/oocyte; the “Ratio (fold increase in OATP1B1 cRNA injected oocytes compared to water injected oocytes)” value was found to be 1.06. In addition, the “Accumulation in SLCO1B1 cRNA injected oocytes compared to water injected control oocytes (in words)” value on OATP1B1 is given as “No significant increase”. In addition, at OATP1B3, the “Drug uptake, OATP1B3” value is given as 3.12 ± 0.47 pmol/oocyte; the “Drug uptake, Water” value was 2.98 ± 0.59 pmol/oocyte; the “Accumulation in SLCO1B3 cRNA injected oocytes compared to water injected control (in words)” value is “No significant increase”; the “Ratio (fold increase in OATP1B3 cRNA injected oocytes compared to water injected oocytes)” value amounted to 1.05.

As to `C[C@]12CC[C@@H]3c4ccc(OS(=O)(=O)O)cc4CC[C@H]3[C@@H]1CCC2=O` [estrone-3-sulphate], at OATP1A2 (with 2% human serum albumin), the “Drug uptake, OATP1A2” value was found to be 0.35 ± 0.15 pmol/oocyte; the “Drug uptake, Water” value is listed as 0.10 ± 0.03 pmol/oocyte; the “Ratio (fold increase in OATP1A2 cRNA injected oocytes compared to water injected oocytes)” value was 3.55 *. Besides, at OATP1A2 (without human serum albumin), the “Drug uptake, OATP1A2” value was 2.02 ± 0.52 pmol/oocyte; the “Drug uptake, Water” value is 0.19 ± 0.05 pmol/oocyte; the “Ratio (fold increase in OATP1A2 cRNA injected oocytes compared to water injected oocytes)” value is listed as 10.9 *. Further, the “Accumulation in SLCO1A2 cRNA injected oocytes compared to water injected control oocytes (in words)” value at OATP1A2 is reported as “significant increase in accumulation”. Besides, on OATP1B1 (with 2% human serum albumin), the “Drug uptake, OATP1B1” value is reported as 0.15 ± 0.03 pmol/oocyte; the “Drug uptake, Water” value is 0.08 ± 0.03 pmol/oocyte; the “Ratio (fold increase in OATP1B1 cRNA injected oocytes compared to water injected oocytes)” value is 1.90 *. Further, at OATP1B1 (without human serum albumin), the “Drug uptake, OATP1B1” value came out at 0.51 ± 0.17 pmol/oocyte; the “Drug uptake, Water” value is on record as 0.16 ± 0.04 pmol/oocyte; the “Ratio (fold increase in OATP1B1 cRNA injected oocytes compared to water injected oocytes)” value is 3.21 *. Besides, the “Accumulation in SLCO1B1 cRNA injected oocytes compared to water injected control oocytes (in words)” value at OATP1B1 was “significant increase in accumulation”. In addition, on OATP1B3, the “Drug uptake, OATP1B3” value was 0.50 ± 0.20 pmol/oocyte; the “Drug uptake, Water” value came out at 0.21 ± 0.01 pmol/oocyte; the “Accumulation in SLCO1B3 cRNA injected oocytes compared to water injected control (in words)” value is reported as “trend towards increased accumulation”.

Values taken from publication PMC4859410 (Pharmacogenetics and genomics, 2010).
